The results in this text go back to patent US9034403B2, “Yeast extract containing γ-Glu-X or γ-Glu-X-Gly and a method for producing the same” (AJINOMOTO CO., INC., priority 2010, dated 2015).

Numbered stars: 1 amine (or outer) side, 2 acyl side, 3 side chain; on linkers, the order of the positions; unused ones are H or OH. Square brackets hold non-standard residues; d marks the D form. Peptide text beside a SMILES is read from it. γGlu = O=C(O)[C@H](CCC(=O)[*:2])N[*:1]; Nva = CCC[C@H](N)C(=O)O

For assay [1], the system named is S288C, Y3560 and YEp24-PTDH3-GSH2 strains. Nature of the assay: Influence of YEp24-PTDH3-GSH2 on γ-EV to γ-EVG conversion. It counts as cell-based, Saccharomyces cerevisiae. Particulars: 18 hours. How it is done:
Each of the S288C ura3Δ227/YEp24-PTDH3-GSH2, Y3560/YEp24-PTDH3-GSH2, S288C and Y3560 strains, was cultivated in 50-ml tubes containing 10 ml of SD medium with 100 ppm γ-Glu-Val as a final concentration. For Y3560 strain medium was also supplemented with uracil (20 mg/L). Tubes were inoculated by overnight culture of corresponding strain at initial OD600=0.01, and placed in rotation shaker at 240 rpm, 30° C. for 18 hours. Then cells from 2 ml of broth culture were harvested by centrifugation, and were washed by 1 ml of milliQ water three times. Then washed cells were suspended in 1 ml of milliQ and were incubated at 70° C. for 10 min with a water bath to extract intracellular materials. After cell debris and the extract were separated by centrifugation, aqueous phase was transferred to clean vial and then the vial was vacuum-dried. Thus the dried extract was prepared. Then γ-Glu-Val-Gly in the dried extract was measured with LC-MS/MS analysis as it is described in example 12.

Assay [2] has as its system GSH2 overexpressing strain PG2 and WT strain. Nature of the assay: Addition of γ-Glu-Val to GSH2 overexpressing strain PG2 and WT strain, γ-Glu-Val-Gly content. It is filed as cell-based, Saccharomyces cerevisiae. How it is done:
GSH2 overexpressing strain PG2 was constructed basically in the same manner as described in Example 10 except that AJ14956 described in Example 19 was used instead of ura3Δ0 from S288C. As a control, WT strain was obtained by returning the deleted URA3 gene into wild type gene from AJ14956 in the same manner described in Example 10 and Example 19.
One loop of the WT strain or PG2 strain was inoculated into SD medium (50 ml in a 500 ml-volume Sakaguchi flask), and cultured at 30° C. for 24 hours with shaking at a velocity of 120 rpm. Absorbance of the obtained culture broth was measured, and the culture broth was inoculated into the SD medium supplemented with various concentrations of γ-Glu-Val (400 ml in a 2 L-volume conical flask with baffle fins, two or more flasks) so that OD660 was 0.01 at the start of the culture, and culture was performed at 30° C. with shaking by rotation at a velocity of 120 rpm until OD660 reached to the predetermined value. Then, the amount of γ-Glu-Val-Gly in dry cells and the solid content of the extracted extract were calculated in the same manner described previously. As shown in the results, PG2, a GSH2 overexpressing strain, took up γ-Glu-Val from the medium and converted it into γ-Glu-Val-Gly in the cell.

In assay [3] the test system is Saccharomyces cerevisiae S288C strain. Put plainly: Addition of peptide to medium of S288C strain; peptide content in dry cells and in extract by LC-MS/MS. It counts as cell-based. How it is done:
Absorbance of the obtained culture broth was measured, the culture broth was inoculated into SD medium (400 ml in a 2 L-volume conical flask with baffle fins, a pluratity of flasks) so that OD660 was 0.01 at the start of the culture (absorbance was measured by using DU640 SPECTROPHTOMETER, BECKMAN COULTER), and culture was performed at 30° C. for 19 hours with shaking by rotation at a velocity of 120 rpm. From the obtained culture broth, 400 OD units of the cells (1 OD unit is defined as cells contained in 1 ml of culture broth of which OD660 is 1) were collected by centrifugal separation. The supernatant was removed as much as possible, and the residual cells were suspended in 45 ml of Milli-Q water. The cells were collected again by centrifugal separation, and resuspended in 45 ml of Milli-Q water. By repeating this operation 3 times in total, the medium was completely removed from the cells. The washed cells were suspended in about 1.5 ml of Milli-Q water, and the suspension was heated at 70° C. for 10 minutes. By this step, the extractable components contained in the cells were extracted. Then, the extract and the cell residue were separated by centrifugation.
Cell debris were removed from the extract using a centrifugal filtration membrane of 10 kDa (Amicon Ultra—0.5 mL 10K, MILLIPORE, Catalogue Number UFC501096)), the obtained fraction was derivatized with the AQC reagent in the same manner as that used in Example 1, and γ-Glu-Val-Gly and γ-Glu-Val were measured by LC-MS/MS. Separately, the amount of GSH in the cells was measured in a conventional manner (GSH in the extract was derivatized by using a fluorescence reagent ABD-F that binds to thiol group, separated and quantified by HPLC). Furthermore, dry cell weight was measured after the washed cells were dried at 104° C. for 4 hours. From the amounts of γ-Glu-Val-Gly and γ-Glu-Val in the extract prepared from the cells that was contained in a certain volume of culture broth and dry cell weight measured as described above, the amount of these peptides based on weight of dried cells was calculated. […]
One loop of the S288C strain was inoculated into SD medium (50 ml in a 500 ml-volume Sakaguchi flask), and cultured at 30° C. for 24 hours with shaking at a velocity of 120 rpm. Absorbance of the obtained culture broth was measured, the culture broth was inoculated into SD medium (400 ml in a 2 L-volume conical flask with baffle fins, two or more flasks) so that OD660 was 0.01 at the start of the culture, and culture was performed at 30° C. for 19 hours with shaking by rotation at a velocity of 120 rpm. After 19 hours, γ-Glu-Val-Gly aqueous solutions of various concentrations were added to obtain predetermined concentrations, and the culture was continued for 1 hour. Using these culture broths, the γ-Glu-Val-Gly content in dry cells was calculated in the same manner as in Example 2. Furthermore, the solid content of the extract was calculated, and the amount of γ-Glu-Val-Gly in the solid content was also calculated. […]
The cells were collected from the total culture broth, and washed in the same manner as that of Example 2. The washed cells in an amount of 400 OD units were suspended in 1.5 ml of Milli-Q water. This suspension was maintained at 70° C. for 10 minutes to produce an extract from the yeast cells. Furthermore, the suspension was centrifuged to remove the cell residues and thereby collect only the extract. The γ-Glu-Val-Gly concentration of this extract (extract of addition experiment) was measured to be about 300 ppm, and solid content was about 1%. The γ-Glu-Val-Gly concentration in an extract prepared in the same way but without adding γ-Glu-Val-Gly to the culture broth (extract of no addition experiment) was below the quantitation limit, and solid content was about 1%.
One loop of the S288C strain was inoculated into SD medium (50 ml in a 500 ml-volume Sakaguchi flask), and cultured at 30° C. for 24 hours with shaking at a velocity of 120 rpm. […]

For assay [4], the system named is GSH1 overexpressing strain AG1. Nature of the assay: Addition of nVal to GSH1 overexpressing strain AG1, γ-Glu-nVal content. It counts as cell-based, Saccharomyces cerevisiae. Conditions: for γ-Glu-nVal content: culture continued 1 hour. How it is done:
Then, this AG1 strain was cultivated in SD medium supplemented with nVal. More specifically, one loop of the AG1 strain was inoculated into SD medium (50 ml in a 500 ml-volume Sakaguchi flask), and cultured at 30° C. for 24 hours with shaking at a velocity of 120 rpm. Absorbance of the obtained culture broth was measured, and the culture broth was inoculated into SDP medium (400 ml in a 2 L-volume conical flask with baffle fins, two or more flasks) so that OD660 was 0.01 at the start of the culture, and culture was performed at 30° C. for 23 hours with shaking by rotation at a velocity of 120 rpm. After 23 hours, nVal solution was added to a final concentration of 10 ppm or 100 ppm, and the cultures were continued for 1 hour. Then, the amount of γ-Glu-nVal was measured in the same manner described in the experimental example 15. The γ-Glu-nVal content was 0.07% when 10 ppm of nVal was added to the medium and the γ-Glu-nVal content was 0.37% when 100 ppm of nVal was added to the medium. Then, yeast extract containing γ-Glu-nVal was prepared from the broth culture cultivated with 100 ppm nVal basically in the same manner as described in Example 16. This yeast extract contained 1.44% γ-Glu-nVal at the dry matter base. This yeast extract would give strong kokumi for initial and middle taste from its character.

The test system of assay [5] is S288C PADH1-HGT1 (Hgt1p overproducing strain) and S288C. Put plainly: Peptide uptake of Hgt1p overproducing strain and parental strain S288C, intracellular content on dry weight cell. It counts as cell-based, Saccharomyces cerevisiae. Particulars: S288C PADH1-HGT1; γ-Glu-nVal-Gly 100 ppm added to the medium. The protocol: One loop of the S288C strain was inoculated into SD medium (50 ml in a 500 ml-volume Sakaguchi flask), and cultured at 30° C. for 24 hours with shaking at a velocity of 120 rpm. Absorbance of the obtained culture broth was measured, the culture broth was inoculated into SD medium (400 ml in a 2 L-volume conical flask with baffle fins, two or more flasks) so that OD660 was 0.01 at the start of the culture, and culture was performed at 30° C. for 19 hours with shaking by rotation at a velocity of 120 rpm. After 19 hours, γ-Glu-Val-Gly aqueous solutions of various concentrations were added to obtain predetermined concentrations, and the culture was continued for 1 hour. Using these culture broths, the γ-Glu-Val-Gly content in dry cells was calculated in the same manner as in Example 2. Furthermore, the solid content of the extract was calculated, and the amount of γ-Glu-Val-Gly in the solid content was also calculated.
The S288C PADH1-HGT1, Hgt1p overproducing strain obtained in Example 12, and its parental strain S288C, were evaluated for their ability to take up γ-Glu-Val-Gly in the same manners as described in Example 4. The amount of γ-Glu-Val-Gly added into the medium was 100 ppm as a final concentration. As a result, intracellular content of γ-Glu-Val-Gly in S288C on the dry weight cell was about 0.9%, but intracellular content of γ-Glu-Val-Gly in S288C PADH1-HGT1 on the dry weight cell was about 4.9%.
S288C PADH1-HGT1, Hgt1p overproducing strain obtained in Example 12, and its parental strain S288C were evaluated for their γ-Glu-nVal-Gly uptake abilities in the same manners as described in Example 4 and Example 13. The amount of γ-Glu-nVal-Gly added to the medium was 100 ppm as a final concentration.

The mark [6] stands for this setting: PG2 strain, γ-Glu-Val in the medium 100 ppm, CT 21 hr.
The mark [7] stands for this setting: PG2 strain, γ-Glu-Val in the medium 500 ppm, CT 21 hr.
The mark [8] stands for this setting: WT strain, γ-Glu-Val in the medium 100 ppm, CT 19 hr.
The mark [9] stands for this setting: WT strain, γ-Glu-Val in the medium 500 ppm, CT 19 hr.
The mark [10] stands for this setting: 25 ppm γ-Glu-Val added to medium after 19 hours, culture continued 1 hour.
The mark [11] stands for this setting: 100 ppm γ-Glu-Val added to medium after 19 hours, culture continued 1 hour.
[12] abbreviates: 200 ppm γ-Glu-Val added to medium after 19 hours, culture continued 1 hour.
[13] abbreviates: γ-Glu-Val 100 ppm added to SD medium in advance, culture 24 hours.

As to `CC(C)[C@H](NC(=O)CC[C@H](N)C(=O)O)C(=O)O` [γ-Glu-Val], the γ-EVG in assay [1] (strain S288C ura3Δ227/YEp24-PTDH3-GSH2, 100 ppm γ-Glu-Val in SD medium) amounted to 705 μg 1^−1 OD600^−1; in assay [1] (strain S288C, 100 ppm γ-Glu-Val in SD medium), 6 μg 1^−1 OD600^−1; in assay [1] (strain Y3560/YEp24-PTDH3-GSH2, 100 ppm γ-Glu-Val in SD medium), 2039 μg 1^−1 OD600^−1; in assay [1] (strain Y3560, 100 ppm γ-Glu-Val in SD medium with uracil), 110 μg 1^−1 OD600^−1. The “γ-Glu-Val-Gly content in dry cells” value was determined as 81 ppm in assay [2] (setting [6]), 123 ppm in assay [2] (setting [7]), 7 ppm in assay [2] (setting [8]) and 7 ppm in assay [2] (setting [9]). Moreover, the “γ-Glu-Val-Gly content in solid content of extract” value in assay [2] (setting [6]) is listed as 384 ppm; in assay [2] (setting [7]), 585 ppm; in assay [2] (setting [8]), 29 ppm; in assay [2] (setting [9]) it was 29 ppm. Also, the “γ-Glu-Val content in dry cells” value in assay [3] (setting [10]) worked out at 1468 ppm; in assay [3] (setting [11]) it was 6369 ppm; in assay [3] (setting [12]), 10930 ppm. Also, the “γ-Glu-Val content in solid content of extract” value worked out at 8491 ppm in assay [3] (setting [10]), 27599 ppm in assay [3] (setting [11]) and 49474 ppm in assay [3] (setting [12]). Further, the “γ-Glu-Val present in dry cells” value in assay [3] (setting [13]) amounted to 7171 ppm. In assay [3] (setting [13]), the “γ-Glu-Val-Gly present in dry cells” value was determined as 20 ppm.
Turning to `CCC[C@H](N)C(=O)O` [nVal, norvaline], the γ-Glu-nVal content in assay [4] (10 ppm of nVal added after 23 hours) worked out at 0.07%; in assay [4] (100 ppm of nVal added after 23 hours), 0.37%. Further, in assay [4] (yeast extract from broth culture cultivated with 100 ppm nVal), the “γ-Glu-nVal in yeast extract at the dry matter base” value was 1.44%.
In the case of `CCC[C@H](NC(=O)CC[C@H](N)C(=O)O)C(=O)NCC(=O)O` [γ-Glu-nVal-Gly] (γGlu-[Nva]-Gly-OH), the “intracellular content of γ-Glu-nVal-Gly on the dry weight cell” value in assay [5] is “about 2.84%”. Also, in assay [3] (50 ppm γ-Glu-nVal-Gly added after 19 hours, culture continued 1 hour, 400 OD units in 1.5 ml, solid content about 1%), the “γ-Glu-nVal-Gly concentration of extract” value is “about 100 ppm”. In addition, the figures for the “γ-Glu-nVal-Gly content in the dry cell” value in assay [3] (γ-Glu-nVal-Gly added into the medium at 10 ppm) and in assay [3] (γ-Glu-nVal-Gly added into the medium at 100 ppm) were “about 0.07%” and “about 0.09%”, respectively.
As to `CCC[C@H](NC(=O)CC[C@H](N)C(=O)O)C(=O)O` [γ-Glu-nVal], the “γ-Glu-nVal content in the dry cell” value is on record as “about 0.03%” in assay [3] (γ-Glu-nVal added into the medium at 10 ppm) and “about 0.13%” in assay [3] (γ-Glu-nVal added into the medium at 100 ppm).
